One data set deals with Quadruplex DNA. Briefly: Binding affinity to human KRAS utr-c RNA g-quadruplex by fluorescence spectroscopy. In kind it is nucleic-acid assay.
The nature of data set [1]: Drug uptake in human PANC1 cells at 5 uM after 2 hrs by FACS analysis. In kind it is ADME, cell-based. The note with it: panc-1, 2 h. Background: A flow cytometer gives signals particle by particle.
Data set [2] can be described thus: Drug uptake in human HEK293 cells at 5 uM and 4 degree C after 16 hrs by FACS analysis relative to 37 degree C. It is filed as ADME, cell-based. To be noted: hek293, 16 h.
The subject of data set [3] is PANC-1. Nature of the data set: Antitumor activity against human PANC1 cells xenografted in SCID mouse assessed as reduction in tumor growth at 3 mg/kg administered intratumorally measured after 14 days by micrometer caliper method. In kind it is functional, organism-based.
The test system of data set [4] is PANC-1. Nature of the data set: Induction of apoptosis in human PANC1 cells assessed as viable cells at 5 nM and photoirradiated at 7.2 J/cm2 measured after 6 to 24 hrs in presence of NAC by annexin-V-propidium iodide staining based FACScalibur flow cytometry analysis (reference value: 94.5 %). In kind it is functional. The note with it: PANC-1, light or radiation study, read-out: Activity.

Data set [5] relates to PANC-1. Nature of the data set: Induction of apoptosis in human PANC1 cells assessed as viable cells at 10 nM and photoirradiated at 7.2 J/cm2 measured after 6 to 24 hrs in presence of NAC by annexin-V-propidium iodide staining based FACScalibur flow cytometry analysis (reference value: 94.5 %). It is filed as functional. To be noted: PANC-1, light or radiation study, read-out: Activity.

For data set [6], the system named is PANC-1. Briefly: Induction of apoptosis in human PANC1 cells assessed as early apoptotic cells at 10 nM and photoirradiated at 7.2 J/cm2 measured after 6 to 24 hrs in presence of NAC by annexin-V-propidium iodide staining based FACScalibur flow cytometry analysis (reference value: 3.1 %). In kind it is functional.
Data set [7] concerns PANC-1. Briefly: Induction of apoptosis in human PANC1 cells assessed as cleavage of caspase 7 when photoirradiated at 7.2 J/cm2 by Western blot analysis. It is filed as functional, cell-based. (A western blot detects proteins with antibodies after separation by electrophoresis.)
Data set [8] can be described thus: Induction of ROS-mediated […] labeled Ras RNA g-quadruplex (unknown origin) degradation at 0.6 uM incubated for 30 mins followed by photoirradiation for 15 to 30 mins by PAGE analysis.

Activity calls are given as the source filed them. The calls are words filed in the database; no cut-off is given here.

`CCCCCCCCCCCCCC[n+]1ccc(-c2c3nc(c(-c4cc[n+](C)cc4)c4ccc([nH]4)c(-c4cc[n+](C)cc4)c4nc(c(-c5cc[n+](C)cc5)c5ccc2[nH]5)C=C4)C=C3)cc1.[I-].[I-].[I-].[I-]` yielded a Kd at Quadruplex DNA of 235 nM. For the same compound, the Drug uptake entry in data set [1] and in data set [2] was “Active” each time. Moreover, in the data set on PANC-1 [3], the result was inactive. The viability at 0.005 µM in the data set on PANC-1 [4] was determined as 95.2%. The viability at 0.01 µM in the data set on PANC-1 [5] is 90.9%. Also, the Activity with PANC-1 [6] is 3.7%. Also, the result (in the data set on PANC-1 [7]; in data set [8]) was Active.

The term Kd denotes a measure of binding affinity in units of concentration.

The values are drawn from ChEMBL document CHEMBL4376882, “Photodynamic Therapy for ras-Driven Cancers: Targeting G-Quadruplex RNA Structures with Bifunctional Alkyl-Modified Porphyrins” (J Med Chem, 2020).
